Results from US20150141336A1, “Pancreatic Peptide Compounds and Use” (Novo Nordisk A/S, priority 2012, published 2015).
Numbered stars: 1 amine (or outer) side, 2 acyl side, 3 side chain; on linkers, the order of the positions; unused ones are H or OH. Side chains are listed from the residue outwards. Peptide text beside a SMILES is read from it. * marks the point of attachment. C18 diacid = O=C(O)CCCCCCCCCCCCCCCCC(=O)*; γGlu = O=C(O)[C@H](CCC(=O)[*:2])N[*:1]; AEEA = NCCOCCOCC(=O)O

Assay: Assay (II) PK i.v. minipig, in vivo half-life
Set-up: species or system Göttingen mini-pigs
Settings: male, Göttingen, minipig, iv, Half-life minipig, Assay (II)
Outline: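 Plasma levels after a single 6 nmol/kg intravenous dose in five male Göttingen mini-pigs were measured by TFC/LC/MS/MS against spiked-plasma calibration, sampling to 240 h. Vehicle: 50 mM K2HPO4, 0.05% tween 80, pH 8.0. Individual profiles analysed non-compartmentally for half-life.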

| SMILES | half-life [h] |
| --- | --- |
| CC[C@H](C)[C@H](NC(=O)[C@H](Cc1ccc(O)cc1)NC(=O)[C@H](CCCNC(=N)N)NC(=O)[C@H](CCCNC(=N)N)NC(=O)[C@H](CC(C)C)NC(=O)[C@H](CC(=O)O)NC(=O)[C@H](C)NC(=O)[C@H](C)NC(=O)[C@H](Cc1ccc(O)cc1)NC(=O)[C@H](CCC(N)=O)NC(=O)[C@H](C)NC(=O)[C@H](CCSC)NC(=O)[C@H](CCC(N)=O)NC(=O)[C@H](CCC(=O)O)NC(=O)[C@H](CCCCNC(=O)COCCOCCNC(=O)COCCOCCNC(=O)CC[C@H](NC(=O)CCCCCCCCCCCCCCCCC(=O)O)C(=O)O)NC(=O)[C@@H](NC(=O)[C@H](C)NC(=O)[C@H](CC(N)=O)NC(=O)[C@H](CC(=O)O)NC(=O)CNC(=O)[C@@H]1CCCN1C(=O)[C@H](Cc1ccc(O)cc1)NC(=O)[C@@H](NC(=O)[C@@H]1CCCN1C(=O)[C@H](CCC(=O)O)NC(=O)[C@H](CC(C)C)NC(=O)[C@@H]1CCCN1)C(C)C)[C@@H](C)O)C(=O)N[C@@H](CC(N)=O)C(=O)N[C@@H](CCSC)C(=O)N[C@@H](CC(C)C)C(=O)N[C@H](C(=O)N[C@@H](CCCNC(=N)N)C(=O)N1CCC[C@H]1C(=O)N[C@@H](CCCNC(=N)N)C(=O)N[C@@H](Cc1ccc(O)cc1)C(N)=O)[C@@H](C)O [Compound T] (H-PLEPVYPGDNATK([AEEA-AEEA-γGlu-C18 diacid])EQMAQYAADLRRYINMLTRPRY-NH2; N-terminus and C-terminus assumed) | 45 |
| CC[C@H](C)[C@H](NC(=O)[C@H](Cc1ccc(O)cc1)NC(=O)[C@H](CCCNC(=N)N)NC(=O)[C@H](CCCNC(=N)N)NC(=O)[C@H](CC(C)C)NC(=O)[C@H](CC(=O)O)NC(=O)[C@H](C)NC(=O)[C@H](C)NC(=O)[C@H](Cc1ccc(O)cc1)NC(=O)[C@H](CCC(N)=O)NC(=O)[C@H](C)NC(=O)[C@H](CCSC)NC(=O)[C@H](CCC(N)=O)NC(=O)[C@H](CCC(=O)O)NC(=O)[C@@H]1CCCN1C(=O)[C@@H](NC(=O)[C@H](C)NC(=O)[C@H](CC(N)=O)NC(=O)[C@H](CC(=O)O)NC(=O)CNC(=O)[C@@H]1CCCN1C(=O)[C@H](Cc1ccc(O)cc1)NC(=O)[C@@H](NC(=O)[C@@H]1CCCN1C(=O)[C@H](CCC(=O)O)NC(=O)[C@H](CC(C)C)NC(=O)[C@@H]1CCCN1)C(C)C)[C@@H](C)O)C(=O)N[C@@H](CC(N)=O)C(=O)N[C@@H](CCSC)C(=O)N[C@@H](CC(C)C)C(=O)N[C@@H](CCCCNC(=O)COCCOCCNC(=O)COCCOCCNC(=O)CC[C@H](NC(=O)CCCCCCCCCCCCCCCCC(=O)O)C(=O)O)C(=O)N[C@@H](CCCNC(=N)N)C(=O)N1CCC[C@H]1C(=O)N[C@@H](CCCNC(=N)N)C(=O)N[C@@H](Cc1ccc(O)cc1)C(N)=O [Compound B] (H-PLEPVYPGDNATPEQMAQYAADLRRYINMLK([AEEA-AEEA-γGlu-C18 diacid])RPRY-NH2; N-terminus and C-terminus assumed) | 93 |
| CC[C@H](C)[C@H](NC(=O)[C@H](Cc1ccc(O)cc1)NC(=O)[C@H](CCCNC(=N)N)NC(=O)[C@H](CCCNC(=N)N)NC(=O)[C@H](CC(C)C)NC(=O)[C@H](CC(=O)O)NC(=O)[C@H](C)NC(=O)[C@H](C)NC(=O)[C@H](Cc1ccc(O)cc1)NC(=O)[C@H](CCC(N)=O)NC(=O)[C@H](C)NC(=O)[C@H](CCSC)NC(=O)[C@H](CCC(N)=O)NC(=O)[C@H](CCC(=O)O)NC(=O)[C@H](CCCCNC(=O)COCCOCCNC(=O)COCCOCCNC(=O)CC[C@H](NC(=O)CCCCCCCCCCCCCCCCC(=O)O)C(=O)O)NC(=O)[C@@H](NC(=O)[C@H](C)NC(=O)[C@H](CC(N)=O)NC(=O)[C@H](CC(=O)O)NC(=O)CNC(=O)[C@@H]1CCCN1C(=O)[C@H](Cc1ccc(O)cc1)NC(=O)[C@@H](NC(=O)[C@@H]1CCCN1C(=O)[C@H](CCC(=O)O)NC(=O)[C@@H](N)CC(C)C)C(C)C)[C@@H](C)O)C(=O)N[C@@H](CC(N)=O)C(=O)N[C@@H](CCSC)C(=O)N[C@@H](CC(C)C)C(=O)N[C@H](C(=O)N[C@@H](CCCNC(=N)N)C(=O)N1CCC[C@H]1C(=O)N[C@@H](CCCNC(=N)N)C(=O)N[C@@H](Cc1ccc(O)cc1)C(N)=O)[C@@H](C)O [Compound BB] (H-LEPVYPGDNATK([AEEA-AEEA-γGlu-C18 diacid])EQMAQYAADLRRYINMLTRPRY-NH2; N-terminus and C-terminus assumed) | 19 |

Further lines, results first:

| half-life [h] | SMILES |
| --- | --- |
| 35 | CC[C@H](C)[C@H](NC(=O)[C@H](Cc1ccc(O)cc1)NC(=O)[C@H](CCCNC(=N)N)NC(=O)[C@H](CCCNC(=N)N)NC(=O)[C@H](CC(C)C)NC(=O)[C@H](CC(=O)O)NC(=O)[C@H](C)NC(=O)[C@H](C)NC(=O)[C@H](Cc1ccc(O)cc1)NC(=O)[C@H](CCC(N)=O)NC(=O)[C@H](C)NC(=O)[C@H](CCSC)NC(=O)[C@H](CCC(N)=O)NC(=O)[C@H](CCCCNC(=O)COCCOCCNC(=O)COCCOCCNC(=O)CC[C@H](NC(=O)CCCCCCCCCCCCCCCCC(=O)O)C(=O)O)NC(=O)[C@@H]1CCCN1C(=O)[C@@H](NC(=O)[C@H](C)NC(=O)[C@H](CC(N)=O)NC(=O)[C@H](CC(=O)O)NC(=O)CNC(=O)[C@@H]1CCCN1C(=O)[C@H](Cc1ccc(O)cc1)NC(=O)[C@@H](NC(=O)[C@@H]1CCCN1C(=O)[C@H](CCC(=O)O)NC(=O)[C@H](CC(C)C)NC(=O)[C@@H]1CCCN1)C(C)C)[C@@H](C)O)C(=O)N[C@@H](CC(N)=O)C(=O)N[C@@H](CCSC)C(=O)N[C@@H](CC(C)C)C(=O)N[C@H](C(=O)N[C@@H](CCCNC(=N)N)C(=O)N1CCC[C@H]1C(=O)N[C@@H](CCCNC(=N)N)C(=O)N[C@@H](Cc1ccc(O)cc1)C(N)=O)[C@@H](C)O [Compound S] (H-PLEPVYPGDNATPK([AEEA-AEEA-γGlu-C18 diacid])QMAQYAADLRRYINMLTRPRY-NH2; N-terminus and C-terminus assumed) |
| 60 | CC[C@H](C)[C@H](NC(=O)[C@H](Cc1ccc(O)cc1)NC(=O)[C@H](CCCNC(=N)N)NC(=O)[C@H](CCCNC(=N)N)NC(=O)[C@H](CC(C)C)NC(=O)[C@H](CC(=O)O)NC(=O)[C@H](C)NC(=O)[C@H](C)NC(=O)[C@H](Cc1ccc(O)cc1)NC(=O)[C@H](CCCCNC(=O)COCCOCCNC(=O)COCCOCCNC(=O)CC[C@H](NC(=O)CCCCCCCCCCCCCCCCC(=O)O)C(=O)O)NC(=O)[C@H](C)NC(=O)[C@H](CCSC)NC(=O)[C@H](CCC(N)=O)NC(=O)[C@H](CCC(=O)O)NC(=O)[C@@H]1CCCN1C(=O)[C@@H](NC(=O)[C@H](C)NC(=O)[C@H](CC(N)=O)NC(=O)[C@H](CC(=O)O)NC(=O)CNC(=O)[C@@H]1CCCN1C(=O)[C@H](Cc1ccc(O)cc1)NC(=O)[C@@H](NC(=O)[C@@H]1CCCN1C(=O)[C@H](CCC(=O)O)NC(=O)[C@H](CC(C)C)NC(=O)[C@@H]1CCCN1)C(C)C)[C@@H](C)O)C(=O)N[C@@H](CC(N)=O)C(=O)N[C@@H](CCSC)C(=O)N[C@@H](CC(C)C)C(=O)N[C@H](C(=O)N[C@@H](CCCNC(=N)N)C(=O)N1CCC[C@H]1C(=O)N[C@@H](CCCNC(=N)N)C(=O)N[C@@H](Cc1ccc(O)cc1)C(N)=O)[C@@H](C)O [Compound O] (H-PLEPVYPGDNATPEQMAK([AEEA-AEEA-γGlu-C18 diacid])YAADLRRYINMLTRPRY-NH2; N-terminus and C-terminus assumed) |
| 77 | CC[C@H](C)[C@H](NC(=O)[C@H](Cc1ccc(O)cc1)NC(=O)[C@H](CCCNC(=N)N)NC(=O)[C@H](CCCNC(=N)N)NC(=O)[C@H](CC(C)C)NC(=O)[C@H](CC(=O)O)NC(=O)[C@H](C)NC(=O)[C@H](CCCCNC(=O)COCCOCCNC(=O)COCCOCCNC(=O)CC[C@H](NC(=O)CCCCCCCCCCCCCCCCC(=O)O)C(=O)O)NC(=O)[C@H](Cc1ccc(O)cc1)NC(=O)[C@H](CCC(N)=O)NC(=O)[C@H](C)NC(=O)[C@H](CCSC)NC(=O)[C@H](CCC(N)=O)NC(=O)[C@H](CCC(=O)O)NC(=O)[C@@H]1CCCN1C(=O)[C@@H](NC(=O)[C@H](C)NC(=O)[C@H](CC(N)=O)NC(=O)[C@H](CC(=O)O)NC(=O)CNC(=O)[C@@H]1CCCN1C(=O)[C@H](Cc1ccc(O)cc1)NC(=O)[C@@H](NC(=O)[C@@H]1CCCN1C(=O)[C@H](CCC(=O)O)NC(=O)[C@H](CC(C)C)NC(=O)[C@@H]1CCCN1)C(C)C)[C@@H](C)O)C(=O)N[C@@H](CC(N)=O)C(=O)N[C@@H](CCSC)C(=O)N[C@@H](CC(C)C)C(=O)N[C@H](C(=O)N[C@@H](CCCNC(=N)N)C(=O)N1CCC[C@H]1C(=O)N[C@@H](CCCNC(=N)N)C(=O)N[C@@H](Cc1ccc(O)cc1)C(N)=O)[C@@H](C)O [Compound M] (H-PLEPVYPGDNATPEQMAQYK([AEEA-AEEA-γGlu-C18 diacid])ADLRRYINMLTRPRY-NH2; N-terminus and C-terminus assumed) |
| 45 | CC[C@H](C)[C@H](NC(=O)[C@H](Cc1ccc(O)cc1)NC(=O)[C@H](CCCNC(=N)N)NC(=O)[C@H](CCCNC(=N)N)NC(=O)[C@H](CC(C)C)NC(=O)[C@H](CC(=O)O)NC(=O)[C@H](C)NC(=O)[C@H](C)NC(=O)[C@H](Cc1ccc(O)cc1)NC(=O)[C@H](CCC(N)=O)NC(=O)[C@H](C)NC(=O)[C@H](CCSC)NC(=O)[C@H](CCC(N)=O)NC(=O)[C@H](CCC(=O)O)NC(=O)[C@@H]1CCCN1C(=O)[C@@H](NC(=O)[C@H](C)NC(=O)[C@H](CC(N)=O)NC(=O)[C@H](CC(=O)O)NC(=O)CNC(=O)[C@@H]1CCCN1C(=O)[C@H](Cc1ccc(O)cc1)NC(=O)[C@@H](NC(=O)[C@@H]1CCCN1C(=O)[C@H](CCC(=O)O)NC(=O)[C@H](CCCCNC(=O)COCCOCCNC(=O)COCCOCCNC(=O)CC[C@H](NC(=O)CCCCCCCCCCCCCCCCC(=O)O)C(=O)O)NC(=O)[C@@H]1CCCN1)C(C)C)[C@@H](C)O)C(=O)N[C@@H](CC(N)=O)C(=O)N[C@@H](CCSC)C(=O)N[C@@H](CC(C)C)C(=O)N[C@H](C(=O)N[C@@H](CCCNC(=N)N)C(=O)N1CCC[C@H]1C(=O)N[C@@H](CCCNC(=N)N)C(=O)N[C@@H](Cc1ccc(O)cc1)C(N)=O)[C@@H](C)O [Compound AE] |
